{"source": "patent US20260041098A1", "about": "“POLYMERIC BATCH TO PREPARE AN ANTIMICROBIAL MATERIAL AND AIR FILTER” (IMPORTADORA Y EXPORTADORA JCN LIMITADA, priority 2021, published 2026)", "format_in_all_cases": "cell-based", "key": {"S. aureus ATCC 6538 [1]": {"test_system": "S. aureus ATCC 6538", "experiment": "Copper oxychloride dilution test", "details": "5,000 ppm", "protocol": "(§1) Additionally, a dilution test was performed using a 250,000 ppm ([…]) stock solution of copper oxychloride. A gradient was prepared using aliquots from 2,500 ppm to 100,000 ppm. A 3×10^5 CFU/mL bacterial culture of S. aureus ATCC 6538 and a 1.25×10^6 CFU/mL culture of E. coli ATCC 25922 were added to each solution."}, "E. coli ATCC 25922 [2]": {"test_system": "E. coli ATCC 25922", "experiment": "Copper oxychloride dilution test", "protocol": "as §1"}, "S. aureus ATCC 6538 [3]": {"test_system": "S. aureus ATCC 6538", "experiment": "Copper oxychloride agar diffusion test", "details": "4,250-125,000 ppm tested, 37° C., 24 hours", "protocol": "(§2) An agar diffusion test was conducted for E. coli ATCC 25922 and S. aureus ATCC 6538 cultures. Copper oxychloride was added at different concentrations (4,250 ppm, 8,500 ppm, 17,000 ppm, 32,000 ppm, 60,000 ppm, 125,000 ppm)."}, "E. coli ATCC 25922 [4]": {"test_system": "E. coli ATCC 25922", "experiment": "Copper oxychloride agar diffusion test", "details": "4,250-125,000 ppm tested, 37° C., 24 hours", "protocol": "as §2"}, "[5]": {"details": "repeated test, 5,000 ppm (bacterium not named)"}}, "data": [{"smiles": "[Cl-].[Cu+2].[Cu+2].[OH-].[OH-].[OH-]", "note": "[copper oxychloride]", "values": [{"measurement": "% Efficiency", "setting": "S. aureus ATCC 6538 [1]", "result": 99.9, "unit": "%"}, {"measurement": "bacterial growth", "setting": "S. aureus ATCC 6538 [1]", "result": "no growth"}, {"measurement": "Final Count", "setting": "S. aureus ATCC 6538 [1]; initial count 3 × 10^5 CFU/mL", "result": "2 × 10^2 CFU/mL"}, {"measurement": "% Efficiency", "setting": "E. coli ATCC 25922 [2]; 2,500 ppm", "result": 96.0, "unit": "%"}, {"measurement": "bacterial growth", "setting": "E. coli ATCC 25922 [2]; 2,500 ppm", "result": "still grew"}, {"measurement": "Final Count", "setting": "E. coli ATCC 25922 [2]; 2,500 ppm, initial count 1.25 × 10^6 CFU/mL", "result": "5 × 10^4 CFU/mL"}, {"measurement": "bacteria eliminated", "setting": "E. coli ATCC 25922 [2]; [5]", "result": 99.9, "unit": "%"}, {"measurement": "bacterial growth", "setting": "E. coli ATCC 25922 [2]; [5]", "result": "no bacterial growth was observed"}, {"measurement": "concentration at which zones of growth inhibition were observed", "setting": "S. aureus ATCC 6538 [3]", "result": "17,000 ppm"}, {"measurement": "concentration at which zones of growth inhibition were observed", "setting": "E. coli ATCC 25922 [4]", "result": "17,000 ppm"}]}]}
